Data from patent publication US20260209214A1, “LSD1 MODULATORS” (RECURSION PHARMACEUTICALS, INC., priority 2022, published 2026).

Target: Recombinant human LSD1 (Homo sapiens, UniProt O60341)
Assay: LSD1 inhibition assay (HTRF LSD1 Histone H3K4 mono-demethylation assay, me1->me0)
Format: biochemical
Settings: 20 nM recombinant human LSD1, 95 nM H3K4(me1) biotinylated peptide, 15 min preincubation, 60 min at 25° C., read-out: LSD1 inhibition IC50 (nM range)
Procedure, shortened: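 HTRF demethylation (me1->me0) read-out: streptavidin-XL665 and anti-H3K4me0 cryptate added after reaction, ratio measured after 90 min dark. Reaction: 95 nM H3K4me1 biotin-peptide, 20 nM LSD1 (15-min compound pre-incubation), 60 min, 25 °C, buffer pH 8.5 plus FAD and DTT; 4-parameter logistic IC50.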

Structure (SMILES)	IC50
N#Cc1ccc(-c2cccc(CN3CC4(N)CCC3CC4)c2Cl)cc1F [Example 328, 3'-({4-amino-2-azabicyclo[2.2.2]octan-2-yl}methyl)-2'-chloro-3-fluoro-[1,1'-biphenyl]-4-carbonitrile]	100 to 1000 nM
N#Cc1ccc(-c2cccc(CC3CNCCO3)c2-c2cnco2)cc1 (centres unmarked) [Example 27, 3′-[(morpholin-2-yl)methyl]-2′-(1,3-oxazol-5-yl)-[1,1′-biphenyl]-4-carbonitrile]	25 to 100 nM
CC(C)C1(O)CCN(c2ccc(CC3CNCCO3)cc2-c2ccc(C#N)c(F)c2)CC1 (centres unmarked) [Example 79, 3-fluoro-2′-[4-hydroxy-4-(propan-2-yl)piperidin-1-yl]-5′-[(morpholin-2-yl)methyl]-[1,1′-biphenyl]-4-carbonitrile]	10 to 25 nM
N#Cc1ccc(-c2cccc(CN3[C@@H]4CC[C@H]3[C@@H](N)C4)c2C2=CCOCC2)cc1F (racemic) [Example 249, 3'-{[(1S,2S,4R)-2-amino-7-azabicyclo[2.2.1]heptan-7-yl]methyl}-2'-(3,6-dihydro-2H-pyran-4-yl)-3-fluoro-[1,1'-biphenyl]-4-carbonitrile]	25 to 100 nM
N#Cc1ccc(-c2cccc(CN3C[C@@H]4CNC[C@H]4C3)c2-c2cncs2)cc1F [Example 324, 3'-{[(3aS,6aS)-octahydropyrrolo[3,4-c]pyrrol-2-yl]methyl}-3-fluoro-2'-(1,3-thiazol-5-yl)-[1,1'-biphenyl]-4-carbonitrile]	10 to 25 nM
N#Cc1ccc(-c2cc(CN3[C@@H]4CC[C@H]3[C@@H](N)C4)ccc2OC2CCC2)cc1F (racemic) [Example 312, 5'-{[(1S,2S,4R)-2-amino-7-azabicyclo[2.2.1]heptan-7-yl]methyl}-2'-cyclobutoxy-3-fluoro-[1,1'-biphenyl]-4-carbonitrile]	10 to 25 nM
N#Cc1ccc(-c2cccc(CN3CCCC34CCCNC4)c2Cl)cc1F (centres unmarked) [Example 327, 2'-chloro-3'-({1,7-diazaspiro[4.5]decan-1-yl}methyl)-3-fluoro-[1,1'-biphenyl]-4-carbonitrile]	> 1000 nM
N#Cc1ccc(-c2cc(CN3[C@@H]4CC[C@H]3[C@@H](N)C4)ccc2OCCC(F)F)cc1F (racemic) [Example 315, 5'-{[(1S,2S,4R)-2-amino-7-azabicyclo[2.2.1]heptan-7-yl]methyl}-2'-(3,3-difluoropropoxy)-3-fluoro-[1,1'-biphenyl]-4-carbonitrile]	< 10 nM
Cc1c(CN2[C@@H]3CC[C@H]2[C@@H](N)C3)cccc1-c1ccc(C#N)c(F)c1 (racemic) [Example 306, 3'-{[(1S,2S,4R)-2-amino-7-azabicyclo[2.2.1]heptan-7-yl]methyl}-3-fluoro-2'-methyl-[1,1'-biphenyl]-4-carbonitrile]	100 to 1000 nM
Cc1cc(CN2CCC3(CCN3C)C2)c(Cl)c(-c2ccc(C#N)c(F)c2)c1 (centres unmarked) [Compound 240]	25 to 100 nM
N#Cc1ccc(-c2cc(CC3CNCCO3)ccc2-c2ccc(N3CCCC3)nc2)cc1F (centres unmarked) [Example 93, 3-fluoro-5′-[(morpholin-2-yl)methyl]-2′-[6-(pyrrolidin-1-yl)pyridin-3-yl]-[1,1′-biphenyl]-4-carbonitrile]	25 to 100 nM
COCC1CCN(c2ccc(CC3CNCCCO3)cc2-c2ccc(C#N)c(F)c2)CC1 (centres unmarked) [Example 74, 3-fluoro-2′-[4-(methoxymethyl)piperidin-1-yl]-5′-[(1,4-oxazepan-2-yl)methyl]-[1,1′-biphenyl]-4-carbonitrile]	10 to 25 nM
CN[C@@H]1CCN(Cc2cccc(-c3ccc(C#N)c(F)c3)c2C2CC2)C1 [Example 228, 2'-cyclopropyl-3-fluoro-3'-{[(3R)-3-(methylamino)pyrrolidin-1-yl]-methyl}-[1,1'-biphenyl]-4-carbonitrile]	100 to 1000 nM
N#Cc1ccc(-c2cc(CN3C[C@]4(N)CC[C@H]3C4)ccc2N2CCC3(CCOC3)CC2)cc1F [Example 234, 5'-{[(1S,4S)-4-amino-2-azabicyclo[2.2.1]heptan-2-yl]methyl}-3-fluoro-2'-{2-oxa-8-azaspiro[4.5]decan-8-yl}-[1,1'-biphenyl]-4-carbonitrile]	< 10 nM
Cc1cc(NCC2CNCCO2)c(Cl)c(-c2ccc(C#N)c(F)c2)c1 (centres unmarked) [Example 89, 2′-chloro-3-fluoro-5′-methyl-3′-{[(morpholin-2-yl)methyl]amino}-[1,1′-biphenyl]-4-carbonitrile]	> 1000 nM
CCCc1c(CN2[C@H]3CC[C@@H]2[C@H](N)C3)cccc1-c1ccc(C#N)c(F)c1 (single isomer, unassigned) [Example 212]	25 to 100 nM
N#Cc1ccc(-c2cccc(OC3CC4CNC3C4)c2-c2ccns2)cc1F (centres unmarked) [Example 112, 3′-{2-azabicyclo[2.2.1]heptan-6-yloxy}-3-fluoro-2′-(1,2-thiazol-5-yl)-[1,1′-biphenyl]-4-carbonitrile]	10 to 25 nM
C[C@@H]1CCN(Cc2cccc(-c3ccc(C#N)c(F)c3)c2Cl)C[C@H]1N (racemic) [Example 331, 3'-{[(3S,4R)-3-amino-4-methylpiperidin-1-yl]methyl}-2'-chloro-3-fluoro-[1,1'-biphenyl]-4-carbonitrile]	> 1000 nM

Structure (SMILES)	IC50
N#Cc1ccc(-c2cc(F)cc(CN3[C@H]4CC[C@@H]3[C@H](N)C4)c2C2CC2)cc1F (single isomer, unassigned) [Example 223]	10 to 25 nM
N#Cc1ccc(-c2cccc(COC3CCNC3)c2-c2cnco2)cc1F (centres unmarked) [Example 154, 3-fluoro-2′-(1,3-oxazol-5-yl)-3′-[(pyrrolidin-3-yloxy)methyl]-[1,1′-biphenyl]-4-carbonitrile]	10 to 25 nM
N#Cc1ccc(-c2cc(CC3CNCCO3)ccc2C2CCCO2)cc1F (centres unmarked) [Example 145, 3-fluoro-5′-[(morpholin-2-yl)methyl]-2′-(oxolan-2-yl)-[1,1′-biphenyl]-4-carbonitrile]	> 1000 nM
N#Cc1ccc(-c2cccc(C[C@H]3CNCCO3)c2-c2ccno2)cc1F (single isomer, unassigned) [Example 17]	10 to 25 nM
N#Cc1ccc(-c2cc(CC3CNCCO3)ccc2N2CCC3(CCOC3)C2)cc1F (centres unmarked) [Example 119, 3-fluoro-5′-[(morpholin-2-yl)methyl]-2′-{2-oxa-7-azaspiro[4.4]nonan-7-yl}-[1,1′-biphenyl]-4-carbonitrile]	100 to 1000 nM
CN1CCC(O)(Cc2cccc(-c3ccc(C#N)c(F)c3)c2C2CC2)CC1 [Example 166, 2′-cyclopropyl-3-fluoro-3′-[(4-hydroxy-1-methylpiperidin-4-yl)methyl]-[1,1′-biphenyl]-4-carbonitrile]	100 to 1000 nM
N#Cc1ccc(-c2cc(F)cc(CC3CNCCO3)c2-c2cncs2)cc1F (centres unmarked) [Example 19, 3,5′-difluoro-3′-[(morpholin-2-yl)methyl]-2′-(1,3-thiazol-5-yl)-[1,1′-biphenyl]-4-carbonitrile]	10 to 25 nM
Cn1cc2cc(-c3ccc(CN4C[C@]5(N)CC[C@H]4C5)cc3-c3ccc(C#N)c(F)c3)ccc2n1 [Example 264, 5'-{[(1S,4S)-4-amino-2-azabicyclo[2.2.1]heptan-2-yl]methyl}-3-fluoro-2'-(2-methyl-2H-indazol-5-yl)-[1,1'-biphenyl]-4-carbonitrile]	10 to 25 nM
N#Cc1ccc(-c2cccc(N3CCC(N)CC3)c2-c2cncs2)cc1F [Example 115, 3'-(4-aminopiperidin-1-yl)-3-fluoro-2'-(1,3-thiazol-5-yl)-[1,1'-biphenyl]-4-carbonitrile]	10 to 25 nM
CCN[C@@H]1C[C@@H]2CC[C@H]1N2Cc1cccc(-c2ccc(C#N)c(F)c2)c1C1CC1 (single isomer, unassigned) [Example 201]	10 to 25 nM
CN1CCC2CN(Cc3cccc(-c4ccc(C#N)c(F)c4)c3C3CC3)CC21 (centres unmarked) [Example 276, 2'-cyclopropyl-3-fluoro-3'-({1-methyl-octahydropyrrolo[2,3-c]pyrrol-5-yl}methyl)-[1,1'-biphenyl]-4-carbonitrile]	100 to 1000 nM
COCc1cc(-c2ccc(CC3CNCCO3)cc2-c2ccc(C#N)c(F)c2)on1 (centres unmarked) [Example 129, 3-fluoro-2′-[3-(methoxymethyl)-1,2-oxazol-5-yl]-5′-[(morpholin-2-yl)methyl]-[1,1′-biphenyl]-4-carbonitrile]	100 to 1000 nM
COc1cn(-c2ccc(CC3CNCCO3)cc2-c2ccc(C#N)c(F)c2)nc1C (centres unmarked) [Example 77, 3-fluoro-2′-(4-methoxy-3-methyl-1H-pyrazol-1-yl)-5′-[(morpholin-2-yl)methyl]-[1,1′-biphenyl]-4-carbonitrile]	100 to 1000 nM
COc1cnc(-c2ccc(CN3[C@@H]4CC[C@H]3[C@@H](N)C4)cc2-c2ccc(C#N)c(F)c2)cn1 (racemic) [Example 317, 5'-{[(1S,2S,4R)-2-amino-7-azabicyclo[2.2.1]heptan-7-yl]methyl}-3-fluoro-2'-(5-methoxypyrazin-2-yl)-[1,1'-biphenyl]-4-carbonitrile]	10 to 25 nM
CN(CC1CC1)c1ccc(CN2[C@@H]3CC[C@H]2[C@@H](N)C3)cc1-c1ccc(C#N)c(F)c1 (racemic) [Example 254, 5'-{[(1S,2S,4R)-2-amino-7-azabicyclo[2.2.1]heptan-7-yl]methyl}-2'-[(cyclopropylmethyl)(methyl)amino]-3-fluoro-[1,1'-biphenyl]-4-carbonitrile]	10 to 25 nM
N#Cc1ccc(-c2cc(CC3CNCCO3)ccc2N2CC(c3ccc(C4CC4)nc3)C2)cc1F (centres unmarked) [Example 101, 2′-[3-(6-cyclopropylpyridin-3-yl)azetidin-1-yl]-3-fluoro-5′-[(morpholin-2-yl)methyl]-[1,1′-biphenyl]-4-carbonitrile]	100 to 1000 nM
Cc1ncc(-c2c(CC3CNCCO3)cccc2-c2ccc(C#N)c(F)c2)o1 (centres unmarked) [Example 69, 3-fluoro-2′-(2-methyl-1,3-oxazol-5-yl)-3′-[(morpholin-2-yl)methyl]-[1,1′-biphenyl]-4-carbonitrile]	100 to 1000 nM
